Laboratory results: patent US5140015A, “2-aralkoxy and 2-alkoxy adenosine derivatives as coronary vasodilators and antihypertensive agents” (Whitby Research, Inc., priority 1990, dated 1992)
Where two headings read alike, the source gives them in different places.

Assays:
Design in all cases: species or system guinea pig (female Sprague-Dawley)
[1] = molecular target: T1, A1 receptors of the SA node (Cavia porcellus, UniProt P47745); assay: SQ (stimulus to Q interval) prolongation in isolated perfused heart (Langendorff preparation); conditions: isolated perfused guinea pig heart; concentration for half-maximal prolongation of stimulus to Q interval; read-out: SQ Prolongation (A1) ED50
T1 construct: perfused hearts from female Sprague-Dawley guinea pigs in an isolated Langendorff heart preparation; from tissue; host or cells: isolated perfused guinea pig heart (Langendorff), nodal tissue
T1 sequence (P47745 1-326): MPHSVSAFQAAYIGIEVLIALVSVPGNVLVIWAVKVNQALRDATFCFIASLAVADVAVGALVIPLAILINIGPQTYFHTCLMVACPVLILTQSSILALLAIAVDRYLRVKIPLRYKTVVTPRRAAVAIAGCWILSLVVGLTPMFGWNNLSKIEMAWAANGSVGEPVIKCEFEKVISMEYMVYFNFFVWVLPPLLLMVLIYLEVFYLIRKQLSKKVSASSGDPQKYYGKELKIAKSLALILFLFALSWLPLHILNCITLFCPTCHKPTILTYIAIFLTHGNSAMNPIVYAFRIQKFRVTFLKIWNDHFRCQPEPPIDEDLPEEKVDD
Description: (§1) Assays of the cardiovascular potency of the above compounds at the A1 receptors of the SA node and at the A2 receptor of the coronary artery employed perfused hearts from female Sprague-Dawley guinea pigs in an isolated Langendorff heart preparation. An assay consists of an infusion of a spectophotometrically standardized solution of test compound directly into the aortic cannula at rates increasing stepwise every 5 minutes. Collection of the total cardiac effluent during the first half of each infusion period provides a measure of coronary flow (A2 effect). The concentration of test compound required to produce a half-maximal increase in coronary flow is determined. Registration of the ECG assesses the effect of the test compound on SA node (stimulus to Q interval, A1 effect). The concentration of test compound required to produce a half-maximal prolongation of stimulus to Q interval is determined. […] The ratio of A1 and A2 effects of test compounds are calculated to provide the selectivity ratio.

[2] = tested on: A2 receptor of the coronary artery; assay: Coronary flow increase in isolated perfused heart (Langendorff preparation); conditions: ratio of A1 (SQ prolongation) and A2 (coronary flow) effects
Description: as §1

[3] = molecular target: T2, A2 receptor of the coronary artery (Cavia porcellus, UniProt P46616); assay: as above
T2 construct: perfused hearts from female Sprague-Dawley guinea pigs in an isolated Langendorff heart preparation; from tissue; host or cells: isolated perfused guinea pig heart (Langendorff), coronary vasculature
T2 sequence (P46616 whole entry, the tested form may be a part): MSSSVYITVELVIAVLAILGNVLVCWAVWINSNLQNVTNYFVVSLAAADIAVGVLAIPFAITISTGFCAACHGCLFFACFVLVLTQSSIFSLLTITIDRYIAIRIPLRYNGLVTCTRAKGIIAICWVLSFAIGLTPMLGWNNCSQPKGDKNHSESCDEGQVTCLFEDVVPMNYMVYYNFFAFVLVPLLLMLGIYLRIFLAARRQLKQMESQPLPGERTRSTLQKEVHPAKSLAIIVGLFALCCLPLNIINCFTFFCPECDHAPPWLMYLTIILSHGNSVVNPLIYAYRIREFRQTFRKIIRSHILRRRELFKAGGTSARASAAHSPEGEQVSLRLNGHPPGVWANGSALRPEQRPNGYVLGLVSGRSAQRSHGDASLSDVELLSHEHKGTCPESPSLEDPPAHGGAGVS
Description: as §1

[4] = isolated perfused guinea pig heart, concentration for half-maximal increase in coronary flow, stepwise infusion every 5 minutes, read-out: Coronary Blood Flow Increase (A2) EC50

| EC50 [1] | EC50 [3, 4] | Structure (SMILES) | other results |
| --- | --- | --- | --- |
| – | – | CC[C@@H](COc1nc(N)c2ncn([C@@H]3O[C@H](CO)[C@@H](O)[C@H]3O)c2n1)c1ccccc1 [Example 18] | Selectivity (A1/A2) [2]: 50 |
| 15000 nM | 1.3 nM | CCNC(=O)[C@H]1O[C@@H](n2cnc3c(N)nc(OCCc4ccccc4)nc32)[C@H](O)[C@@H]1O [Example 22, 2-(2-phenyl)ethoxy-5'-N-ethylcarboxamidoadenosine] | – |
| – | 0.9 nM | Nc1nc(OCCc2ccc(F)cc2)nc2c1ncn2[C@@H]1O[C@H](CO)[C@@H](O)[C@H]1O [Example 2, 2-[2-(4-fluorophenyl)ethoxy]adenosine] | – |
| 79400 nM | 91.7 nM | Nc1nc(OC2CCCC2)nc2c1ncn2[C@@H]1O[C@H](CO)[C@@H](O)[C@H]1O [Example 3, 2-Cyclopentyloxyadenosine] | – |
| 3760 nM | – | Nc1nc(OCCCC2CCCCC2)nc2c1ncn2[C@@H]1O[C@H](CO)[C@@H](O)[C@H]1O [Example 23, 2-(3-cyclohexyl)propoxyadenosine] | – |
| – | 1.4 nM | COc1ccc(CCOc2nc(N)c3ncn([C@@H]4O[C@H](CO)[C@@H](O)[C@H]4O)c3n2)cc1 [Example 10, 2-[2-(4-methoxyphenyl)ethoxy]adenosine] | – |
| – | 61.3 nM | Nc1nc(OCCCc2ccccc2)nc2c1ncn2[C@@H]1O[C@H](CO)[C@@H](O)[C@H]1O [Example 1, 2-(3-phenyl-1-propoxy)adenosine] | – |
| – | 2.6 nM | COc1cccc(CCOc2nc(N)c3ncn([C@@H]4O[C@H](CO)[C@@H](O)[C@H]4O)c3n2)c1 [Example 9, 2-[2-(3-methoxyphenyl)ethoxy]adenosine] | – |
| – | 32 nM | COc1ccccc1CCOc1nc(N)c2ncn([C@@H]3O[C@H](CO)[C@@H](O)[C@H]3O)c2n1 [Example 8, 2-[2-(2-methoxyphenyl)ethoxy]adenosine] | – |
| – | 2.8 nM | Nc1nc(OCCc2ccccc2)nc2c1ncn2[C@@H]1O[C@H](CO)[C@@H](O)[C@H]1O [Example 7, 2-(2-phenylethoxy)adenosine] | – |
| 53100 nM | 9 nM | CC(COc1nc(N)c2ncn([C@@H]3O[C@H](CO)[C@@H](O)[C@H]3O)c2n1)c1ccccc1 (stereo partly drawn) [Example 17, 2-(2-phenyl-1-propoxy)adenosine] | – |
| – | 3.8 nM | Cc1ccccc1CCOc1nc(N)c2ncn([C@@H]3O[C@H](CO)[C@@H](O)[C@H]3O)c2n1 [Example 11, 2-[2-(2-methylphenyl)ethoxy]adenosine] | – |
| – | – | Nc1nc(OCCc2cccs2)nc2c1ncn2[C@@H]1O[C@H](CO)[C@@H](O)[C@H]1O [Example 13, 2-[2-(2-thienyl)ethoxy]adenosine] | EC50 [3]: 3.7 nM |
| – | 22 nM | COc1cc(CCOc2nc(N)c3ncn([C@@H]4O[C@H](CO)[C@@H](O)[C@H]4O)c3n2)cc(OC)c1OC [Example 12, 2-[2-(3,4,5-trimethoxyphenyl)ethoxy]adenosine] | – |
| 18800 nM | – | Nc1nc(OCCc2ccsc2)nc2c1ncn2[C@@H]1O[C@H](CO)[C@@H](O)[C@H]1O [Example 14, 2-[2-(3-thienyl)ethoxy]adenosine] | – |
| 100000 nM | 657 nM | Nc1nc(OC2CCCCC2)nc2c1ncn2[C@@H]1O[C@H](CO)[C@@H](O)[C@H]1O [Example 4, 2-Cyclohexyloxyadenosine] | – |

| Structure (SMILES) | EC50 [1] | EC50 [3, 4] | other results |
| --- | --- | --- | --- |
| Nc1nc(OCCC2CCCCC2)nc2c1ncn2[C@@H]1O[C@H](CO)[C@@H](O)[C@H]1O [Example 5, 2-(2-Cyclohexylethoxy)adenosine] | 8630 nM | – | – |
| Nc1nc(OCc2ccccc2)nc2c1ncn2[C@@H]1O[C@H](CO)[C@@H](O)[C@H]1O [Example 6, 2-benzyloxyadenosine] | – | 419 nM | Selectivity (A1/A2) [2]: 15 |
| Nc1nc(OCCCCc2ccccc2)nc2c1ncn2[C@@H]1O[C@H](CO)[C@@H](O)[C@H]1O [Example 20, 2-(4-phenyl-1-butoxy)adenosine] | 7360 nM | – | EC50 [3]: 9.9 nM |
| CC[C@H](COc1nc(N)c2ncn([C@@H]3O[C@H](CO)[C@@H](O)[C@H]3O)c2n1)c1ccccc1 [Example 19, 2-[(2S)-phenyl-1-butoxy]adenosine] | 27400 nM | 31.4 nM | – |
